Results: patent publication US7320972B2, “4-Biarylyl-1-phenylazetidin-2-ones” (Microbia, Inc., priority 2003, dated 2008)

These compounds were tested on cholesterol absorption (serum 3H-cholesterol) (assay: In Vivo Assay of Hypolipidemic Agents using the Rat Cholesterol Absorption Model). Settings: peroral, 1 mg/kg, serum 3H-cholesterol 3 h after cholesterol dose, vs vehicle control.
Set-up: species or system Sprague-Dawley rats
Protocol: In Vivo Assay of Hypolipidemic Agents using the Rat Cholesterol Absorption Model. This model is based on models described by Burnett et al (2002), Bioorg. Med. Chem. Lett. 2002 Feb. 11;12(3):315-8 and J. Lipid Res. 1999 October;40(10):1747-57. Female Sprague-Dawley rats weighing 150-250 g are separated into groups of […] and fasted overnight. The animals (4-6/group) are dosed perorally with 300 μL test compounds in olive oil or suitable vehicle. Thirty minutes later, 3-5 microCuries ^3H-cholesterol per rat are delivered perorally in 300 μL olive oil. After three hours, 200 μL serum is collected, vortexed with scintillation fluid, and measured for radioactivity in a scintillation counter. Percent inhibition is defined as 100*(1−Ctest/Cctrl), where Ctest and Cctl refer to ^3H levels in serum for the test compound and for the vehicle only control, respectively. Percent inhibition values are reported for a fixed dose. The ED50 is the dose at which the half-maximal effect on serum ^3H levels is observed for a given test compound.
Representative compounds of the invention were tested in the Rat Cholesterol Absorption model above.

Q: Which “% inhibition at 1 mg/kg” value does the source give for `C[N+](C)(C)c1cccc(-c2ccc([C@@H]3[C@@H](CC[C@H](O)c4ccc(F)cc4)C(=O)N3c3ccc(F)cc3)cc2)c1` [Example 120, 4′-{(2S,3R)-1-(4-fluorophenyl)-3-[(3S)-3-(4-fluorophenyl)-3-hydroxypropyl]-4-oxoazetidin-2-yl}-N,N,N-trimethylbiphenyl-3-aminium] here?
A: Its value is 23%.

Same assay, conditions: peroral, 5 mg/kg (footnote 3), serum 3H-cholesterol vs vehicle control

Q: Which “% inhibition at 5 mg/kg” value does the source give for `N#Cc1cccc(-c2ccc([C@@H]3[C@@H](CC[C@H](O)c4ccc(F)cc4)C(=O)N3c3ccc(F)cc3)cc2)c1` [Example 14, 4′-{(2S,3R)-1-(4-fluorophenyl)-3-[(3S)-3-(4-fluorophenyl)-3-hydroxypropyl]-4-oxoazetidin-2-yl}biphenyl-3-carbonitrile] here?
A: The value was 32^3%.

Same assay, conditions: po, peroral, 1 mg/kg, serum 3H-cholesterol 3 h after cholesterol dose, vs vehicle control

Q: `O=C1[C@H](CC[C@H](O)c2ccc(F)cc2)[C@@H](c2ccc(-c3cccc(O)c3)cc2O)N1c1ccc(F)cc1` [Example 121, (3R,4S)-4-(3,3′-dihydroxybiphenyl-4-yl)-1-(4-fluorophenyl)-3-[(3S)-3-(4-fluorophenyl)-3-hydroxypropyl]azetidin-2-one] was tested. Which inhibition in vivo at 1 mg/kg did it give?
A: The inhibition in vivo at 1 mg/kg was 72%.

Q: `O=C1[C@H](CC[C@H](O)c2ccc(F)cc2)[C@@H](c2ccc(-c3cccc(P(=O)(O)O)c3)cc2)N1c1ccccc1` [Example 56, (4′-{(2S,3R)-3-[(3S)-3-(4-Fluorophenyl)-3-hydroxypropyl]-4-oxo-1-phenylazetidin-2-yl}biphenyl-3-yl)phosphonic acid] was tested. Which inhibition in vivo at 1 mg/kg did it give?
A: The inhibition in vivo at 1 mg/kg was 59%.

Q: For `O=C1[C@H](CC[C@H](O)c2ccc(F)cc2)[C@@H](c2ccc(-c3ccc(O)cc3O)cc2)N1c1ccc(F)cc1` [Example 108, (3R,4S)-4-(2′,4′-dihydroxybiphenyl-4-yl)-1-(4-fluorophenyl)-3-[(3S)-3-(4-fluorophenyl)-3-hydroxypropyl]azetidin-2-one], which inhibition in vivo at 1 mg/kg is on record?
A: The inhibition in vivo at 1 mg/kg was 69%.

Q: With `O=C1[C@H](CC[C@H](O)c2ccc(F)cc2)[C@@H](c2ccc(-c3cc(O)ccc3Br)cc2)N1c1ccc(F)cc1` [Example 19, (3R,4S)-4-(2′-bromo-5′-hydroxybiphenyl-4-yl)-1-(4-fluorophenyl)-3-[(3S)-3-(4-fluorophenyl)-3-hydroxypropyl]azetidin-2-one] as the compound, how does the inhibition in vivo at 1 mg/kg read?
A: The inhibition in vivo at 1 mg/kg was 66%.

Q: `Cc1cc(C)cc(-c2ccc([C@@H]3[C@@H](CC[C@H](O)c4ccc(F)cc4)C(=O)N3c3ccc(F)cc3)cc2)c1` [Example 90, (3R,4S)-4-(3′,5′-dimethylbiphenyl-4-yl)-1-(4-fluorophenyl)-3-[(3S)-3-(4-fluorophenyl)-3-hydroxypropyl]azetidin-2-one] was tested. Which inhibition in vivo at 1 mg/kg did it give?
A: Its inhibition in vivo at 1 mg/kg is 27%.

Q: Which inhibition in vivo at 1 mg/kg does the source give for `O=Cc1ccc(O)cc1-c1ccc([C@@H]2[C@@H](CC[C@H](O)c3ccc(F)cc3)C(=O)N2c2ccc(F)cc2)cc1` [Example 104, 4′-{(2S,3R)-1-(4-fluorophenyl)-3-[(3S)-3-(4-fluorophenyl)-3-hydroxypropyl]-4-oxoazetidin-2-yl}-5-hydroxybiphenyl-2-carbaldehyde] here?
A: Its inhibition in vivo at 1 mg/kg is 52%.

Q: `O=C1[C@H](CC[C@H](O)c2ccc(F)cc2)[C@@H](c2cccc(-c3cccc(O)c3)c2)N1c1ccc(F)cc1` [Example 44, (3R,4S)-1-(4-fluorophenyl)-3-[(3S)-3-(4-fluorophenyl)-3-hydroxypropyl]-4-(3′-hydroxybiphenyl-3-yl)azetidin-2-one] was tested. Which inhibition in vivo at 1 mg/kg did it give?
A: Its inhibition in vivo at 1 mg/kg is 24%.

Q: With `O=C1[C@H](CC[C@H](O)c2ccc(F)cc2)[C@@H](c2ccc(-c3cccc(O)c3)cc2O)N1c1ccccc1` [Example 42, (3R,4S)-4-(3,3′-Dihydroxybiphenyl-4-yl)-3-[(3S)-3-(4-fluorophenyl)-3-hydroxypropyl]-1-phenylazetidin-2-one] as the compound, how does the inhibition in vivo at 1 mg/kg read?
A: The inhibition in vivo at 1 mg/kg was 87%.

Q: `O=C1[C@H](CC[C@H](O)c2ccc(F)cc2)[C@@H](c2ccc(-c3cccc(OC[C@H]4OC(O)[C@H](O)[C@@H](O)[C@@H]4O)c3)cc2)N1c1ccc(F)cc1` (stereo partly drawn) [Example 76, 6-O-(4′-{(2S,3R)-1-(4-Fluorophenyl)-3-[(3S)-3-(4-fluorophenyl)-3-hydroxypropyl]-4-oxoazetidin-2-yl}biphenyl-3-yl)-D-glucopyranose] was tested. Which inhibition in vivo at 1 mg/kg did it give?
A: Its inhibition in vivo at 1 mg/kg is 56%.
